This note sets out measurements from patent US9126969B2, “Pyrazolylbenzimidazole derivatives, compositions containing them and use thereof” (AVENTIS PHARMA S.A., priority 2006, dated 2015).

The test system of assay [1] is HeLa cells (tumor cell line). Kind of assay: FDA-PI viability/proliferation assay on HeLa tumor cells. The assay is classed as cell-based. The note with it: for IC50: Homo sapiens; for ratio: PBL viability IC50 / HeLa viability IC50. As to the method:
(§1) The compounds were tested in a viability/proliferation assay for comparing, under similar conditions, their activity on proliferating tumor cells and on quiescent normal cells.
(§2) The HeLa cells (tumor cell line) and the PBLs (quiescent cells, peripheral blood lymphocytes) originate, respectively, from the ATCC and from Cambrex.
(§3) The HeLa cells (tumor cell line) are seeded at 0.25×10^6 cells/well in 2 mL of culture medium. The products are added 24 h after seeding. After incubation for 48 h in the presence of the products, all the HeLa cells (supernatant and adherent cells) are recovered, centrifuged and taken up in PBS containing a final concentration of 0.25 μg/mL of fluorescein diacetate (FDA), 10 μg/mL of propidium iodide (PI) and 3 μL/mL of 10 μm beads. The cell suspensions are filtered immediately before analysis on the Facscalibur. The PBLs are seeded at 10^6 cells/well in 2 mL of culture medium. The products are added 1-4 h after seeding. After incubation for 48 h in the presence of the products, half the cell suspension is recovered and incubated in the presence of a final concentration of 0.25 μg/mL of fluorescein diacetate (FDA), 10 μg/mL of propidium iodide (PI) and 2 μL/mL of 10 μm beads.
(§4) The FDA which enters the cells is cleaved by esterases only in live cells, releasing the fluorescein which emits a fluorescent radiation in the green range when it is excited (generally by UV radiation). The PI enters only the dead cells, the membrane of which is permeabilized, and emits a fluorescent radiation in the red range when it is excited. The beads are used as tracers for the dead cells having already disappeared at the time of reading.
(§5) Calculation: The % of viable cells relative to the nontreated control is given by: (number of live cells/number of live cells in the control)/(number of beads/number of beads in the control)×100 for the HeLa cells, and by: (number of live cells/number of live cells in the control)×100 for the quiescent PBLs. The products according to the invention are tested at several concentrations and an IC50, corresponding to the concentration which causes 50% of the maximum inhibition, is calculated.

The test system of assay [2] is PBLs (quiescent cells, peripheral blood lymphocytes). Kind of assay: FDA-PI viability assay on quiescent PBLs. The assay is classed as cell-based. The conditions noted are these: Lymphocyte, 48 h incubation, read-out: Viability PBL IC50. As to the method:
as §1, §2, §3, §4, §5

The mark [3] stands for this setting: HeLa cells, 48 h incubation, read-out: Viability HeLa IC50.
Setting [4] is: HeLa, read-out: IC50 values on the tumor cells.

Each structure is given as a SMILES string. Where a name gives a salt, the structure may show the parent alone. Read-outs that look alike come from different tables or passages of the source. A value given as a limit tells only on which side of the number the result lay.

For the molecule `Cl.O=C(Nc1c[nH]nc1-c1nc2cc(F)c(N3CCOCC3)cc2[nH]1)N1CCCCC1` [Example 1, N-[3-(5-fluoro-6-morpholin-4-yl-1H-benzimidazol-2-yl)-1H-pyrazol-4-yl]piperidine-1-carboxamide Hydrochloride], the IC50 in assay [1] (setting [3]) stood at 107 nM; in assay [2] it was 7550 nM. In addition, the ratio in assay [1] was found to be 70. In the case of `CCN(CC)C(=O)Nc1c[nH]nc1-c1nc2cc(F)c(N3CCOCC3)cc2[nH]1` [Example 2, 1,1-diethyl-3-[3-(5-fluoro-6-morpholin-4-yl-1H-benzimidazol-2-yl)-1H-pyrazol-4-yl]urea Trifluoroacetate], the IC50 in assay [1] (setting [4]) was under 100 nM. On to `CCN(CC)C(=O)Nc1c[nH]nc1-c1nc2cc(F)c(OCCN3CCCCC3)cc2[nH]1` [Example 4, 1,1-diethyl-3-{3-[5-fluoro-6-(2-piperidin-1-ylethoxy)-1H-benzimidazol-2-yl]-1H-pyrazol-4-yl}urea Trifluoroacetate], for which the IC50 in assay [1] (setting [4]) is under 100 nM. On the same count and under the same terms, in the case of `CCN(CC)C(=O)Nc1c[nH]nc1-c1nc2cc(F)c(OCCCN(C)C)cc2[nH]1` [Example 5, 3-{3-[6-(3-dimethylaminopropoxy)-5-fluoro-1H-benzimidazol-2-yl]-1H-pyrazol-4-yl}-1,1-diethylurea Trifluoroacetate] it was under 100 nM. Same read-out and setting: in the case of `CCN(CC)C(=O)Nc1c[nH]nc1-c1nc2cc(F)c(OCCCN3CCCCC3)cc2[nH]1` [Example 6, 1,1-diethyl-3-{3-[5-fluoro-6-(3-piperidin-1-ylpropoxy)-1H-benzimidazol-2-yl]-1H-pyrazol-4-yl}urea Hydrochloride] it was under 100 nM. Still for that read-out and setting: the figure for `CC(C)N(C(=O)Nc1c[nH]nc1-c1nc2cc(F)c(N3CCCOCC3)cc2[nH]1)C(C)C` [Example 8, 3-[3-(5-fluoro-6-perhydro-1,4-oxazepan-4-yl-1H-benzimidazol-2-yl)-1H-pyrazol-4-yl]-1,1-diisopropylurea] is under 100 nM; for `CCN(CC)C(=O)Nc1c[nH]nc1-c1nc2cc(OCCCCN3CCCCC3)c(F)cc2[nH]1` [Example 9, 1,1-diethyl-3-{3-[6-fluoro-5-(4-piperidin-1-ylbutoxy)-1H-benzimidazol-2-yl]-1H-pyrazol-4-yl}urea Trifluoroacetate] it is under 100 nM.

As to `CCN(CC)C(=O)Nc1c[nH]nc1-c1nc2cc(F)c(N3CCCOCC3)cc2[nH]1` [Example 11, 1,1-diethyl-3[3-(5-fluoro-6-perhydro-1,4-oxazepin-4-yl-1H-benzimidazol-2-yl)-1H-pyrazol-4-yl]urea], the IC50 in assay [1] (setting [4]) is under 100 nM.

On to `CN1CCN(c2cc3[nH]c(-c4n[nH]cc4NC(=O)N4CCCCC4)nc3cc2F)CC1.O=C(O)C(F)(F)F` [Example 12, N-{3-[5-fluoro-6-(4-methylpiperazin-1-yl)-1H-benzimidazol-2-yl]-1H-pyrazol-4-yl}piperidine-1-carboxamide Trifluoroacetate], for which the IC50 in assay [1] (setting [3]) is 56 nM; in assay [2], 3490 nM. Also, the ratio in assay [1] was 62.

As for `CCN(CC)C(=O)Nc1c[nH]nc1-c1nc2cc(F)c(N3CCN(C)CC3)cc2[nH]1` [Example 13, 1,1-diethyl-3-{3-[5-fluoro-6-(4-methylpiperazin-1-yl)-1H-benzimidazol-2-yl]-1H-pyrazol-4-yl}urea], the IC50 in assay [1] (setting [4]) is under 100 nM. Still for that read-out and setting: in the case of `CCN(CC)C(=O)Nc1c[nH]nc1-c1nc2cc(F)c(NCCN(C)C)cc2[nH]1` [Example 15, 3-{3-[6-(2-dimethylaminoethylamino)-5-fluoro-1H-benzimidazol-2-yl]-1H-pyrazol-4-yl}-1,1-diethylurea Trifluoroacetate] it was under 100 nM. The same measure, in the same setting: in the case of `CC(C)N(C(=O)Nc1c[nH]nc1-c1nc2cc(F)c(N3CCOCC3)cc2[nH]1)C(C)C` [Example 16, 3-[3-(5-fluoro-6-morpholin-4-yl-1H-benzimidazol-2-yl)-1H-pyrazol-4-yl]-1,1-diisopropylurea] it was under 100 nM.

Turning to `CN1CCCN(c2cc3[nH]c(-c4n[nH]cc4NC(=O)N4CCCCC4)nc3cc2F)CC1.O=C(O)C(F)(F)F` [Example 17, N-{3-[5-fluoro-6-(4-methylperhydro-1,4-diazepin-1-yl)-1H-benzimidazol-2-yl]-1H-pyrazol-4-yl}-piperidine-1-carboxamide Trifluoroacetate], the IC50 in assay [1] (setting [3]) worked out at 100 nM; in assay [2], 4250 nM. In assay [1], the ratio came out at 42. In the case of `CCN(CC)C(=O)Nc1c[nH]nc1-c1nc2cc(F)c(N3CCCN(C)CC3)cc2[nH]1` [Example 18, 1,1-diethyl-3-{3-[5-fluoro-6-(4-methylperhydro-1,4-diazepin-1-yl)-1H-benzimidazol-2-yl]-1H-pyrazol-4-yl}urea], the figures for the IC50 in assay [1] (setting [3]) and in assay [2] were 39 nM and 3760 nM, respectively. In addition, in assay [1], the ratio is 96.

As to `CCN(CC)C(=O)Nc1c[nH]nc1-c1nc2ccc(N3CCN(C)CC3)cc2[nH]1` [Example 19, 1,1-diethyl-3-{3-[6-(4-methylpiperazin-1-yl)-1H-benzimidazol-2-yl]-1H-pyrazol-4-yl}urea], in assay [1] (setting [4]), the IC50 is under 100 nM. As for `CN1CCN(c2ccc3nc(-c4n[nH]cc4NC(=O)N4CCCCC4)[nH]c3c2)CC1` [Example 20, N-{3-[6-(4-methylpiperazin-1-yl)-1H-benzimidazol-2-yl]-1H-pyrazol-4-yl}piperidine-1-carboxamide], the IC50 in assay [1] (setting [4]) was under 100 nM. For `CN(C)CCCOc1cc2[nH]c(-c3n[nH]cc3NC(=O)N3CCNCC3)nc2cc1F` [Example 31, N-{3-[6-(3-Dimethylaminopropoxy)-5-fluoro-1H-benzimidazol-2-yl]-1H-pyrazol-4-yl}piperazine-1-carboxamide], in assay [1] (setting [4]), the IC50 was in the range of 5000 to 30000 nM. The same measure, in the same setting: in the case of `CCN(C(=O)Nc1c[nH]nc1-c1nc2cc(F)c(OCCCN(C)C)cc2[nH]1)C(C)C` [Example 33, 3-{3-[6-(3-dimethylaminopropoxy)-5-fluoro-1H-benzimidazol-2-yl]-1H-pyrazol-4-yl}-1-ethyl-1-isopropylurea] it was under 100 nM.

`CC(C)N(C(=O)Nc1c[nH]nc1-c1nc2ccc(N3CCN(C)CC3)cc2[nH]1)C(C)C` [Example 34, 1,1-Diisopropyl-3-{3-[6-(4-methylpiperazin-1-yl)-1H-benzimidazol-2-yl]-1H-pyrazol-4-yl}urea]: the IC50 in assay [1] (setting [4]) was under 100 nM. Still for that read-out and setting: in the case of `CCN(C(=O)Nc1c[nH]nc1-c1nc2ccc(N3CCN(C)CC3)cc2[nH]1)C(C)C` [Example 37, 1-Ethyl-1-isopropyl-3-{3-[6-(4-methylpiperazin-1-yl)-1H-benzimidazol-2-yl]-1H-pyrazol-4-yl}urea] it was under 100 nM. Regarding `O=C(Nc1c[nH]nc1-c1nc2cc(F)c(N3CCCOCC3)cc2[nH]1)N1CCCCC1` [Example 38], the IC50 was found to be 85 nM in assay [1] (setting [3]) and 9170 nM in assay [2]. Also, the ratio in assay [1] is given as 108. Regarding `CC(C)N(C(=O)Nc1c[nH]nc1-c1nc2cc(F)c(N3CCN(C)CC3)cc2[nH]1)C(C)C` [Example 39, 3-{3-[5-Fluoro-6-(4-methylpiperazin-1-yl)-1H-benzimidazol-2-yl]-1H-pyrazol-4-yl}-1,1-diisopropylurea trifluoroacetate], in assay [1] (setting [4]), the IC50 is under 100 nM.

`CC(C)N(C(=O)Nc1c[nH]nc1-c1nc2cc(F)c(N3CCCN(C)CC3)cc2[nH]1)C(C)C` [Example 40, 3-{3-[5-Fluoro-6-(4-methylperhydro-1,4-diazepin-1-yl)-1H-benzimidazol-2-yl]-1H-pyrazol-4-yl}-1,1-diisopropylurea]: the IC50 in assay [1] (setting [4]) is under 100 nM.

By IC50 is commonly meant the midpoint of a concentration-inhibition curve.
